These results are taken from patent publication US20130197027A1, “HETEROCYCLYL-AZABICYCLO[3.2.1]OCTANE ANALOGS AS SELECTIVE M1 AGONISTS AND METHODS OF MAKING AND USING SAME” (priority 2010, published 2013).

The target in assay [1] is T1, rM1 (Rattus norvegicus, UniProt P08482).
T1 construct: host or cells: CHO-K1
T1 sequence (P08482 1-460): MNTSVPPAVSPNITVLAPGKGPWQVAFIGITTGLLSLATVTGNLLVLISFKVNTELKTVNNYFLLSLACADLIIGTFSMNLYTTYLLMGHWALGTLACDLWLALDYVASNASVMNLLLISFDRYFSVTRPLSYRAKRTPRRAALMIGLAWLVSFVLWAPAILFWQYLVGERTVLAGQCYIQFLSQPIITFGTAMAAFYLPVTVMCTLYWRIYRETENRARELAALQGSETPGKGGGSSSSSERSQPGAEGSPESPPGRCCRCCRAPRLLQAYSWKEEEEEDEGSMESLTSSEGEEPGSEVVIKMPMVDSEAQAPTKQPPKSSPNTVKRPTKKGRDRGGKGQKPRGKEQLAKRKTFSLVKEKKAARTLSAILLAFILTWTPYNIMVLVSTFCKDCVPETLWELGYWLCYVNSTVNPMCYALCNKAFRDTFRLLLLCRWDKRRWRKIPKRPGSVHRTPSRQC
Briefly: Calcium mobilization assay in CHO-K1 cells stably expressing rat M1 (low throughput, Flexstation II). Format: cell-based. The settings on record: for Emax: RM1, read-out: Efficacy (% Max ACh). An excerpt: (§1) Chinese hamster ovary (CHO-K1) cells stably expressing rat (r) M1 were purchased from the American Type Culture Collection and cultured according to their indicated protocol. CHO cells stably expressing human (h)M2, hM3, and hM5 were described previously (Levey et al., 1991); hM1 and hM4 cDNAs were purchased from Missouri S&T cDNA Resource; rM4 cDNA was provided by T. I. Bonner (National Institutes of Health, Bethesda, Md.). hM1, hM4, and rM4 cDNAs were used to stably transfect CHO-K1 cells purchased from the American Type Culture Collection using Lipofectamine2000. To make stable hM2, hM4 and rM4 cell lines for use in calcium mobilization assays, these cells also were stably transfected with a chimeric G-protein (Gqi5) (provided by B. R. Conklin, University of California, San Francisco) using Lipofectamine 2000. rM1, hM3, and hM5 cells were grown in Ham's F-12 medium containing 10% heat-inactivated fetal bovine serum (FBS), 20 mM HEPES, and 50 μg/mL G418 sulfate. hM2-Gqi5 and hM4-Gqi5 cells were grown in the same medium also containing 500 μg/mL Hygromycin B. Stable rM4-Gqi5 cells were grown in DMEM containing 10% heat-inactivated FBS, 20 mM HEPES, 400 μg/mL G418 sulfate, and 500 μg/mL Hygromycin B. The rat M1 Y381A orthosteric mutant receptor cDNA was generated using the Quik-Change site-directed mutagenesis kit (Stratagene) and verified by sequencing. CHO-K1 cells were stably transfected with this cDNA using Lipofectamine2000 and screened for expression based on calcium mobilization in response to the allosteric M1 agonist N-desmethylclozapine.
For low throughput measurement of agonist-evoked increases in intracellular calcium, CHO-K1 cells stably expressing muscarinic receptors were plated in 100 μL of growth medium at 5×10^4 (rM1, hM3, and hM5) or 6×10^4 cells per well (rM1 Y381A, hM2, and rM4) in Costar 96-well black-walled, tissue culture (TC)-treated, clear-bottom plates (Fisher). Cells were incubated overnight at 37° C. and 5% CO2. The next day, medium was removed from the cells, and they were incubated with 50 μL of 2 μM Fluo-4/acetoxymethyl ester (Invitrogen, Carlsbad, Calif.) prepared as a 2.3 mM stock in DMSO and mixed in a 1:1 ratio with 10% (w/v) Pluronic F-127 and diluted in assay buffer [HBSS (Invitrogen) supplemented with 20 mM HEPES and 2.5 mM probenecid, pH 7.4] for 1 h at 37° C. and 5% CO2. Dye was removed and replaced with 50 μL of assay buffer. For calcium fluorescence measurements, CRCs of compounds (50 μl, 2×) were added 19 s after the beginning of data collection via a Flexstation II (Molecular Devices, Sunnyvale, Calif.). Fluorescence imaging continued for a total of 130 s acquisition time using an excitation wavelength of 488 nm, an emission wavelength of 525 nm, and a cutoff wavelength of 515 nm. All of the peaks of the calcium response were normalized to the response to a maximally effective concentration of ACh (ECmax). These normalized peak calcium response values were fit using GraphPad Prism version 4.0 to a four-parameter logistic equation to determine EC50 values.
(Calcium flux is commonly read through the fluorescence of an indicator in the cells.)

For assay [2], the target named is T2, hM1 (Homo sapiens, UniProt P11229).
T2 construct: host or cells: CHO-K1
T2 sequence (P11229 1-460): T1 sequence (P08482 1-460) with V5A, S254T, S309P, K320R, G337A, V413I
Briefly: Calcium mobilization assay in CHO-K1 cells stably expressing human M1 (high throughput, FDSS 6000). Format: cell-based. The settings on record: for Emax: HM1, read-out: Efficacy (% Max ACh).
Text: as §1
For high throughput measurement of agonist-evoked increases in intracellular calcium, CHO-K1 cells stably expressing muscarinic receptors were plated in growth medium lacking G418 and hygromycin at 15,000 cells/20 μL/well (hM1, hM2-Gqi5, hM3, hM4-Gqi5, and hM5) in Greiner 384-well black-walled, tissue culture (TC)-treated, clear-bottom plates (VWR). Cells were incubated overnight at 37° C. and 5% CO2. The next day, cells were washed using an ELX 405 (BioTek) with three washes (50 μL) of assay buffer then aspirated to 15 μL. Next, 5 μL of 8 μM Fluo-4/acetoxymethyl ester (Invitrogen, Carlsbad, Calif.) prepared as a 2.3 mM stock in DMSO and mixed in a 1:1 ratio with 10% (w/v) Pluronic F-127 and diluted in assay buffer was added to the wells and the cell plates were incubated for 45 min at 37° C. and 5% CO2. Dye was removed by washing with the ELX 405 (three 50 μL washes of assay buffer) then aspirated to 20 μL. Agonist and compound master plates were formatted in an 11 point CRC format (1:3 dilutions) in 100% DMSO with a starting concentration of 10 mM using the BRAVO liquid handler (Agilent). Test compound CRCs were then transferred to daughter plates ([…]) using the Echo acoustic plate reformatter (Labcyte, Sunnyvale, Calif.) and then diluted into assay buffer (40 μL) to a 2× stock using a Thermo Fisher Combi (Thermo Fisher Scientific, Waltham, Mass.). Calcium flux was measured using the Functional Drug Screening System (FDSS) 6000 (Hamamatsu Corporation, Tokyo, Japan) as an increase in the fluorescent static ratio. 20 μL of Agonist Compounds were applied to cells using the automated system of the FDSS 6000 at 4 s into the 300 s protocol and the data were collected at 1 Hz. Concentration-response curves were generated using a four-parameter logistical equation in XLfit curve fitting software (IDBS, Bridgewater, N.J.) for Excel (Microsoft, Redmond, Wash.) or Prism (GraphPad Software, Inc., San Diego, Calif.).

The structures appear in SMILES notation. Substitutions are numbered along the chain they refer to. Where two headings read alike, the source gives them in different places.

For the molecule `CCOC(=O)N1C2CCC1CC(N1CCC[C@@H](NC(=O)c3ccccc3)C1)C2` (stereo partly drawn) [Example 3, ethyl 3-((R)-3-benzamidopiperidin-1-yl)-8-azabicyclo[3.2.1]octane-8-carboxylate], the Emax in assay [1] came out at 93%; in assay [2] it was 79%. In addition, the EC50 came to 112 nM in assay [1] (agonist-evoked calcium mobilization, CHO-K1 rM1 cells, read-out: rM1 Potency (EC50)) and 1600 nM in assay [2] (agonist-evoked calcium mobilization, CHO-K1 hM1 cells, read-out: hM1 Potency (EC50)).
As for `CCOC(=O)N1C2CCC1CC(N1CCC[C@@H](NC(=O)c3ccccc3C)C1)C2` (stereo partly drawn) [Example 2, ethyl 3-((R)-3-(2-methylbenzamido)piperidin-1-yl)-8-azabicyclo[3.2.1]octane-8-carboxylate], in assay [1], the EC50 worked out at 5 nM and the Emax was determined as 94%. Moreover, in assay [2], the EC50 stood at 53 nM and the Emax worked out at 88%.

The term EC50 denotes the concentration giving half of the maximal effect.
